Experimental data from US20050025727A1, “Natural sunlight photostable composition” (priority 2003, published 2005).

Assay: Photostability in natural sunlight: residual sunscreen active by HPLC, 2 mg/cm^2 film on microscope slides
Assay type: physicochemical
Conditions: for Residual Octisalate, Residual %: natural sunlight as in Example 1, formula not named (context: Formula 5)
Description: As described above, a sunscreen composition of SPF X is considered to be “photostable” when at least 70%, preferably at least 75%, more preferably at least 80% of each sunscreen active in the composition remains after exposure of the composition to Y SEDS of natural sunlight, where Y is about ½ X. “Photostability” is assessed by (i) assaying the pre-UVR exposure concentration of each sunscreen active present in the sunscreen composition by high-performance liquid chromatography (“HPLC”); (ii) applying a sample of the sunscreen composition at a concentration of 2 mg/cm^2 (a standard concentration used in SPF testing) to a non-coated microscope slide or similar non-reactive surface (e.g., glass or quartz plate); (iii) irradiating the sample in natural sunlight according to a dosing regimen as illustrated in Table 1; (iv) assaying the concentration of each sunscreen active post-UVR exposure. More specifically, after the desired UVR exposure, each slide is removed from sunlight and placed in a sealed Blue Max™ polypropylene conical tube (Becton Dickinson) or similar container, and stored in an area to prevent further exposure to natural sunlight. When an irradiation series is completed, the residual content of each sunscreen active is determined via HPLC, such as the Perkin Elmer Model 200, equipped with a 785 UVN detector, and a C18 column. A detector wavelength of 310 nm and an eluent solution of […] may be used. The sunscreen composition is extracted from the slide with isopropanol or other suitable solvent and sonicated for a minimum of 10 minutes to completely solubilize the sunscreen actives. The solution is then filtered with a 0.45 um GHP13 mm syringe filter. The above analytical procedure may be modified in a manner that would be obvious to the person of ordinary skill in the art. To compare the photostability of Formulas 1 and 2, a uniform 2 mg/cm^2 film of sunscreen product was placed on multiple microscope slides. The slides were exposed to direct sunlight for time intervals corresponding to 1, 2, 4, 8, and 16 SEDs as measured by a Solar Light PMA 2100 detector. (Unless otherwise indicated, all sunlight exposures were in Ormond Beach, Fla.). Slides were removed from the sun after the desired exposure and stored in Blue Max™ polypropylene conical tubes. Upon completion of the test series, samples were dissolved in a suitable solvent, sonicated and then assayed via HPLC. Unless otherwise indicated, all assays were performed by HPLC with oxybenzone, if present, as the internal standard.

## CCCCC(CC)COC(=O)c1ccccc1O (stereo not drawn) [Octisalate]
Exposed to natural sunlight as in Example 1
  Photostability of octisalate: photolabile
1 SED
  Residual Octisalate, Residual %: 96%
2 SEDs
  Residual Octisalate, Residual %: 100%
4 SEDs
  Residual Octisalate, Residual %: 92%
8 SEDs
  Residual Octisalate, Residual %: 80%
16 SEDs
  Residual Octisalate, Residual %: 55%
